Holding throughout (format): in vivo
One test has as its system Echinochloa crus-galli. In words: Glasshouse assay for herbicidal activity, post-emergence, ECHCG. Particulars: Echinochloa crus-galli, 312 h, visual 13 days after application, 100%=total damage, read-out: Percentage phytotoxicity ECHCG. As to the method:
(§1) Seeds of a variety of test plant species were sown in standard soil ** in pots. After cultivation for one day (pre-emergence) or after 8 days cultivation (post-emergence) under controlled conditions in a glasshouse (at 24/16° C., day/night; 14 hours light; 65% humidity), the plants were sprayed with an aqueous spray solution derived from the formulation of the technical active ingredient (the test herbicide) in acetone/water (50:50) solution containing 0.5% Tween 20 (polyoxyethylene sorbitan monolaurate, CAS Reg. No. 9005-64-5). The test plants were then grown on under controlled conditions in a glasshouse (at 24/16° C., day/night; 14 hours light; 65% humidity) and watered twice daily. 13 Days after application of the test herbicide, for pre- and post-emergence, the test was evaluated visually for percentage phytotoxicity to each plant (where 100%=total damage to plant; 0%=no damage to plant). Generally, each test herbicide is only tested on 1 plant per plant species for each application rate tested and for each application timing. The “standard soil” in Biological Example 1 is usually a “sand” or “sandy loam” type of soil. Biological Example 1—Post-Emergence Application—Herbicidal Activity Results (Percentage Phytotoxicity) Dicotyledonous weeds: ABUTH=Abutilon theophrasti; AMARE=Amaranthus retroflexus. Grassy monocotyledonous weeds: SETFA=Setaria faberi; ALOMY=Alopecurus myosuroides; ECHCG=Echinochloa crus-galli; ZEAMX=Zea mays (corn, maize, e.g. volunteer corn).

Test [1] has as its system Zea mays (corn, maize, e.g. volunteer corn). The experiment in a line: Glasshouse assay for herbicidal activity, post-emergence, ZEAMX. Particulars: Zea mays, 312 h, visual 13 days after application, 100%=total damage, read-out: Percentage phytotoxicity ZEAMX. As to the method: as §1
The subject of a further test is Alopecurus myosuroides. In words: Glasshouse assay for herbicidal activity, post-emergence, ALOMY. Particulars: Alopecurus myosuroides, 312 h, visual 13 days after application, 100%=total damage, read-out: Percentage phytotoxicity ALOMY. As to the method: as §1
The test system of another test is Amaranthus retroflexus. The experiment in a line: Glasshouse assay for herbicidal activity, post-emergence, AMARE. As to conditions: Amaranthus retroflexus, 312 h, visual 13 days after application, 100%=total damage, read-out: Percentage phytotoxicity AMARE. As to the method:
as §1

A further test has as its system Setaria faberi. In words: Glasshouse assay for herbicidal activity, post-emergence, SETFA. Particulars: Setaria faberi, 312 h, visual 13 days after application, 100%=total damage, read-out: Percentage phytotoxicity SETFA. On the procedure: as §1
For the next test, the system named is Abutilon theophrasti. The experiment in a line: Glasshouse assay for herbicidal activity, post-emergence, ABUTH. As to conditions: Abutilon theophrasti, 312 h, visual 13 days after application, 100%=total damage, read-out: Percentage phytotoxicity ABUTH. On the procedure: as §1

With `CC#Cc1ccc(C2C(=O)CC3(CCOCC3)CC2=O)c(OC)c1` [Compound A12], the pest or weed control at 30 g/ha in the test on Echinochloa crus-galli amounted to 100%; in test [1], 100%; with Alopecurus myosuroides, 90%; in the test with Amaranthus retroflexus, 0%; with Setaria faberi, 100%; in the test on Abutilon theophrasti, 0%. Also, the pest or weed control at 250 g/ha with Echinochloa crus-galli was 100%; in test [1], 100%; with Alopecurus myosuroides it was 100%; with Amaranthus retroflexus it was 30%; in the test on Setaria faberi it was 100%; in the test with Abutilon theophrasti, 20%.
As to `CC#Cc1ccc(C2C(=O)C3CCC(C3)C2=O)c(OCCOC)c1` (stereo not drawn) [Compound A15, 3-[2-(2-methoxyethoxy)-4-prop-1-ynyl-phenyl]bicyclo[3.2.1]octane-2,4-dione], the pest or weed control at 30 g/ha was found to be 10% in the test with Echinochloa crus-galli; 40% in test [1]; 10% with Alopecurus myosuroides; 0% with Amaranthus retroflexus; 50% in the test on Setaria faberi; 0% in the test with Abutilon theophrasti. The pest or weed control at 250 g/ha came to 40% in the test with Echinochloa crus-galli; 80% in test [1]; 20% in the test on Alopecurus myosuroides; 0% in the test with Amaranthus retroflexus; 80% in the test with Setaria faberi; 0% in the test on Abutilon theophrasti.
`CC#Cc1ccc(C2C(=O)C3CCC(C3)C2=O)c(CCC)c1` (stereo not drawn) [Compound A16, 3-(2-propyl-4-prop-1-ynyl-phenyl)bicyclo[3.2.1]octane-2,4-dione]: the pest or weed control at 250 g/ha is 100% in the test with Echinochloa crus-galli; 100% in test [1]; 100% in the test with Alopecurus myosuroides; 0% in the test on Amaranthus retroflexus; 100% with Setaria faberi; 0% in the test with Abutilon theophrasti.
Turning to `CC#Cc1ccc(C2C(=O)C3CCC(C3)C2=O)c(CC)c1` (stereo not drawn) [Compound A17], the pest or weed control at 250 g/ha came out at 100% with Echinochloa crus-galli; 100% in test [1]; 100% in the test on Alopecurus myosuroides; 0% with Amaranthus retroflexus; 90% in the test on Setaria faberi; 50% in the test with Abutilon theophrasti.
As for `CC#Cc1ccc(C2=C(OC(C)=O)C3CCC(C3)C2=O)c(OC)c1` (stereo not drawn) [Compound P1, [3-(2-methoxy-4-prop-1-ynyl-phenyl)-4-oxo-2-bicyclo[3.2.1]oct-2-enyl] acetate], the pest or weed control at 250 g/ha was 100% with Echinochloa crus-galli; 100% in test [1]; 100% with Alopecurus myosuroides; 20% with Amaranthus retroflexus; 90% in the test on Setaria faberi; 10% with Abutilon theophrasti.
For the compound `C#CCOC1=C(c2ccc(C#CC)cc2OC)C(=O)C2CCC1C2` (stereo not drawn) [Compound P2, 3-(2-methoxy-4-prop-1-ynyl-phenyl)-2-prop-2-ynoxy-bicyclo[3.2.1]oct-2-en-4-one], the pest or weed control at 250 g/ha with Echinochloa crus-galli was 90%; in test [1], 100%; with Alopecurus myosuroides, 70%; with Amaranthus retroflexus, 0%; in the test on Setaria faberi it was 80%; in the test with Abutilon theophrasti it was 0%.
As for `C=CCOC1=C(c2ccc(C#CC)cc2OC)C(=O)C2CCC1C2` (stereo not drawn) [Compound P3], the pest or weed control at 250 g/ha in the test with Echinochloa crus-galli was determined as 100%; in test [1] it was 100%; in the test on Alopecurus myosuroides it was 70%; in the test on Amaranthus retroflexus, 10%; in the test on Setaria faberi, 90%; in the test on Abutilon theophrasti, 0%.
Turning to `CC#Cc1ccc(C2=C(OCOC)C3CCC(C3)C2=O)c(OC)c1` (stereo not drawn) [Compound P4], the pest or weed control at 250 g/ha with Echinochloa crus-galli is 100%; in test [1], 100%; with Alopecurus myosuroides, 100%; in the test on Amaranthus retroflexus, 0%; in the test on Setaria faberi it was 100%; in the test on Abutilon theophrasti, 10%.
For the compound `CC#Cc1ccc(C2=C(OC(=O)c3ccc(F)cc3)C3CCC(C3)C2=O)c(OC)c1` (stereo not drawn) [Compound P5], the pest or weed control at 250 g/ha with Echinochloa crus-galli came to 100%; in test [1] it was 100%; in the test on Alopecurus myosuroides, 90%; with Amaranthus retroflexus, 30%; with Setaria faberi, 90%; with Abutilon theophrasti, 50%.
As to `CC#Cc1ccc(C2=C(OC(=O)CC)C3CCC(C3)C2=O)c(OC)c1` (stereo not drawn) [Compound P6], the pest or weed control at 250 g/ha in the test on Echinochloa crus-galli stood at 100%; in test [1], 100%; in the test with Alopecurus myosuroides, 90%; in the test with Amaranthus retroflexus, 40%; in the test with Setaria faberi, 90%; in the test with Abutilon theophrasti, 60%.
As for `CC#Cc1ccc(C2=C(OC(=O)OC)C3CCC(C3)C2=O)c(OC)c1` (stereo not drawn) [Compound P7], the pest or weed control at 250 g/ha with Echinochloa crus-galli turned out to be 100%; in test [1], 100%; in the test on Alopecurus myosuroides it was 90%; in the test with Amaranthus retroflexus, 30%; in the test with Setaria faberi, 90%; in the test on Abutilon theophrasti it was 40%.
For the compound `CC#Cc1ccc(C2=C(OC(=O)OCC)C3CCC(C3)C2=O)c(OC)c1` (stereo not drawn) [Compound P8], the pest or weed control at 250 g/ha stood at 100% with Echinochloa crus-galli; 100% in test [1]; 90% in the test on Alopecurus myosuroides; 20% in the test with Amaranthus retroflexus; 90% in the test with Setaria faberi; 60% in the test with Abutilon theophrasti.
For the compound `CC#Cc1ccc(C2=C(OC(=O)C(C)C)C3CCC(C3)C2=O)c(OC)c1` (stereo not drawn) [Compound P10], the pest or weed control at 250 g/ha in the test on Echinochloa crus-galli came to 100%; in test [1], 100%; with Alopecurus myosuroides it was 90%; in the test with Amaranthus retroflexus, 40%; in the test with Setaria faberi, 90%; in the test with Abutilon theophrasti it was 70%.
For `CC#Cc1ccc(C2=C(OC(=O)C(C)(C)C)C3CCC(C3)C2=O)c(OC)c1` (stereo not drawn) [Compound P11], the pest or weed control at 250 g/ha in the test on Echinochloa crus-galli was 100%; in test [1] it was 100%; in the test with Alopecurus myosuroides it was 90%; with Amaranthus retroflexus, 20%; in the test on Setaria faberi, 100%; in the test on Abutilon theophrasti it was 70%.
For `CC#Cc1ccc(C2=C(OC(=O)c3ccccc3)C3CCC(C3)C2=O)c(OC)c1` (stereo not drawn) [Compound P12], the pest or weed control at 250 g/ha in the test on Echinochloa crus-galli came to 100%; in test [1], 100%; in the test on Alopecurus myosuroides, 100%; in the test with Amaranthus retroflexus, 20%; in the test on Setaria faberi, 90%; with Abutilon theophrasti, 70%.
With `CC#Cc1ccc(C2=C(OC(=O)Sc3ccccc3)C3CCC(C3)C2=O)c(OC)c1` (stereo not drawn) [Compound P13], the pest or weed control at 250 g/ha is 100% in the test with Echinochloa crus-galli; 100% in test [1]; 90% in the test on Alopecurus myosuroides; 60% in the test with Amaranthus retroflexus; 100% in the test on Setaria faberi; 40% in the test with Abutilon theophrasti.
Consider `CC#Cc1ccc(C2=C(OC(=O)SCC)C3CCC(C3)C2=O)c(OC)c1` (stereo not drawn) [Compound P14], for which the pest or weed control at 250 g/ha with Echinochloa crus-galli came out at 100%; in test [1] it was 100%; in the test on Alopecurus myosuroides, 90%; with Amaranthus retroflexus, 20%; with Setaria faberi, 100%; with Abutilon theophrasti, 70%.

These data come from patent US10662138B2, “Herbicidal propynyl-phenyl compounds” (Syngenta Participations AG, priority 2014, dated 2020).
